Reference: patent EP0584797A2, “Novel cephalosporin compounds and processes for the preparation thereof” (LUCKY LTD., priority 1992, dated 1994)
≈ marks a conversion by molar mass, not a printed value.

Columns and labels:
Assay in all cases: minimal inhibitory concentration, two-fold agar dilution
Type in all cases: cell-based
[1] = test system: Acinetobacter calcoaceticus ATCC 15437; settings: ATCC15437, Muller-Hinton agar, 37°C, 20 hours, read-out: MIC values against the standard strains
Procedure, shortened: (§1)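 Compounds were serially diluted two-fold into Mueller-Hinton agar, and each plate was spot-inoculated with the test strain at 10⁷ CFU per ml. Plates were incubated at 37°C for 20 hours before MIC values were read.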

[2] = test system: Bacillus cereus ATCC 11778; settings: ATCC11778, Muller-Hinton agar, 37°C, 20 hours, read-out: MIC values against the standard strains
Procedure, shortened: as §1

[3] = test system: Bacillus megaterium ATCC 9885; settings: Priestia megaterium, ATCC9885; Muller-Hinton agar; 37°C; 20 hours; read-out: MIC values against the standard strains
Procedure, shortened: as §1

[4] = test system: Citrobacter freundii ATCC 8090; settings: ATCC8090, Muller-Hinton agar, 37°C, 20 hours, read-out: MIC values against the standard strains
Procedure, shortened: as §1

[5] = test system: Enterobacter aerogenes ATCC 29751; settings: Klebsiella aerogenes, ATCC29751; Muller-Hinton agar; 37°C; 20 hours; read-out: MIC values against the standard strains
Procedure, shortened: as §1

[6] = test system: Enterobacter cloacae ATCC 27508; settings: ATCC27508, Muller-Hinton agar, 37°C, 20 hours, read-out: MIC values against the standard strains
Procedure, shortened: as §1

[7] = test system: Escherichia coli ATCC 10536; settings: ATCC10536, Muller-Hinton agar, 37°C, 20 hours, read-out: MIC values against the standard strains
Procedure, shortened: as §1

[8] = test system: Escherichia coli ATCC 25922; settings: ATCC25922, Muller-Hinton agar, 37°C, 20 hours, read-out: MIC values against the standard strains
Procedure, shortened: as §1

[9] = test system: Klebsiella pneumoniae ATCC 10031; settings: ATCC10031, Muller-Hinton agar, 37°C, 20 hours, read-out: MIC values against the standard strains
Procedure, shortened: as §1

[10] = test system: Micrococcus luteus ATCC 9341; settings: ATCC9341, Muller-Hinton agar, 37°C, 20 hours, read-out: MIC values against the standard strains
Procedure, shortened: as §1

[11] = test system: Morganella morganii ATCC 8076h; settings: ATCC8076H, Muller-Hinton agar, 37°C, 20 hours, read-out: MIC values against the standard strains
Procedure, shortened: as §1

[12] = test system: Proteus mirabilis ATCC 25933; settings: ATCC25933, Muller-Hinton agar, 37°C, 20 hours, read-out: MIC values against the standard strains
Procedure, shortened: as §1

[13] = test system: Proteus vulgaris ATCC 6059; settings: ATCC6059, Muller-Hinton agar, 37°C, 20 hours, read-out: MIC values against the standard strains
Procedure, shortened: as §1

[14] = test system: Providencia rettgeri ATCC 9250; settings: ATCC9250, Muller-Hinton agar, 37°C, 20 hours, read-out: MIC values against the standard strains
Procedure, shortened: as §1

[15] = test system: Pseudomonas aeruginosa ATCC 10145; settings: ATCC10145, Muller-Hinton agar, 37°C, 20 hours, read-out: MIC values against the standard strains
Procedure, shortened: as §1

[16] = test system: Pseudomonas aeruginosa ATCC 25619; settings: ATCC25619, Muller-Hinton agar, 37°C, 20 hours, read-out: MIC values against the standard strains
Procedure, shortened: as §1

[17] = test system: Pseudomonas aeruginosa ATCC 27853; settings: ATCC27853, Muller-Hinton agar, 37°C, 20 hours, read-out: MIC values against the standard strains
Procedure, shortened: as §1

[18] = test system: Salmonella typhimurium ATCC 14028; settings: Salmonella enterica; Muller-Hinton agar; 37°C; 20 hours; read-out: MIC values against the standard strains
Procedure, shortened: as §1

[19] = test system: Serratia marcescens ATCC 27117; settings: ATCC27117, Muller-Hinton agar, 37°C, 20 hours, read-out: MIC values against the standard strains
Procedure, shortened: as §1

[20] = test system: Shigella flexneri ATCC 11836; settings: ATCC11836, Muller-Hinton agar, 37°C, 20 hours, read-out: MIC values against the standard strains
Procedure, shortened: as §1

[21] = test system: Shigella sonnei ATCC 11060; settings: ATCC11060, Muller-Hinton agar, 37°C, 20 hours, read-out: MIC values against the standard strains
Procedure, shortened: as §1

[22] = test system: Staphylococcus aureus ATCC 10537; settings: ATCC10537, Muller-Hinton agar, 37°C, 20 hours, read-out: MIC values against the standard strains
Procedure, shortened: as §1

[23] = test system: Staphylococcus aureus ATCC 6538p; settings: ATCC6538P, Muller-Hinton agar, 37°C, 20 hours, read-out: MIC values against the standard strains
Procedure, shortened: as §1

[24] = test system: Staphylococcus epidermidis ATCC 12228; settings: ATCC12228, Muller-Hinton agar, 37°C, 20 hours, read-out: MIC values against the standard strains
Procedure, shortened: as §1

[25] = test system: Streptococcus faecalis ATCC 29212; settings: Enterococcus faecalis, ATCC29212; Muller-Hinton agar; 37°C; 20 hours; read-out: MIC values against the standard strains
Procedure, shortened: as §1

Row | SMILES | MIC [1] [µg/mL] | MIC [2] [µg/mL] | MIC [3] [µg/mL] | MIC [4] [µg/mL] | MIC [5] [µg/mL] | MIC [6] [µg/mL] | MIC [7] [µg/mL] | MIC [8] [µg/mL] | MIC [9] [µg/mL] | MIC [10] [µg/mL] | MIC [11] [µg/mL] | MIC [12] [µg/mL] | MIC [13] [µg/mL] | MIC [14] [µg/mL] | MIC [15] [µg/mL] | MIC [16] [µg/mL] | MIC [17] [µg/mL] | MIC [18] [µg/mL] | MIC [19] [µg/mL] | MIC [20] [µg/mL] | other results
1 | COc1cc(N)nc(SCC2=C(C(=O)[O-])N3C(=O)[C@@H](NC(=O)/C(=N\OC(C)(C)C(=O)O)c4csc(N)n4)[C@H]3SC2)[n+]1C [Example 17, 7-[(Z)-2-(2-aminothiazol-4-yl)-2-(carboxyprop-2-oxyimino)acetamido]-3-(4-amino-6-methoxy-1-methylpyrimidinium-2-yl)thiomethyl-3-cephem-4-carboxylate] | 2 (≈ 3.13 µM) | 128 (≈ 200 µM) | 0.25 (≈ 0.391 µM) | 0.13 (≈ 0.204 µM) | 4 (≈ 6.26 µM) | 0.016 (≈ 0.0251 µM) | 0.063 (≈ 0.0986 µM) | 0.13 (≈ 0.204 µM) | 0.063 (≈ 0.0986 µM) | 0.5 (≈ 0.783 µM) | 0.016 (≈ 0.0251 µM) | 0.063 (≈ 0.0986 µM) | 0.13 (≈ 0.204 µM) | 0.13 (≈ 0.204 µM) | 4 (≈ 6.26 µM) | 1 (≈ 1.57 µM) | 2 (≈ 3.13 µM) | 0.25 (≈ 0.391 µM) | 0.25 (≈ 0.391 µM) | 0.031 (≈ 0.0485 µM) | MIC [21]: 0.13 µg/mL (≈ 0.204 µM); MIC [22]: 1 µg/mL (≈ 1.57 µM); MIC [23]: 4 µg/mL (≈ 6.26 µM); MIC [24]: 1 µg/mL (≈ 1.57 µM); MIC [25]: > 128 µg/mL
2 | C[n+]1c(SCC2=C(C(=O)[O-])N3C(=O)[C@@H](NC(=O)/C(=N\O)c4csc(N)n4)[C@H]3SC2)nc(N)c(N)c1N [Example 9, 7-[(Z)-2-(2-aminothiazol-4-yl)-2-oxyiminoacetamido]-3-(4,5,6-triamino-1-methylpyrimidinium-2-yl)thiomethyl-3-cephem-4-carboxylate] | 0.13 (≈ 0.235 µM) | 16 (≈ 29 µM) | 0.063 (≈ 0.114 µM) | 0.016 (≈ 0.029 µM) | 0.016 (≈ 0.029 µM) | ≤ 0.008 | 0.031 (≈ 0.0561 µM) | 0.031 (≈ 0.0561 µM) | 0.031 (≈ 0.0561 µM) | 0.031 (≈ 0.0561 µM) | ≤ 0.008 | 0.031 (≈ 0.0561 µM) | 0.063 (≈ 0.114 µM) | ≤ 0.008 | 128 (≈ 232 µM) | 64 (≈ 116 µM) | 128 (≈ 232 µM) | 0.25 (≈ 0.452 µM) | 0.25 (≈ 0.452 µM) | 0.063 (≈ 0.114 µM) | MIC [21]: 0.25 µg/mL (≈ 0.452 µM); MIC [22]: 0.13 µg/mL (≈ 0.235 µM); MIC [23]: 0.25 µg/mL (≈ 0.452 µM); MIC [24]: 0.063 µg/mL (≈ 0.114 µM); MIC [25]: 2 µg/mL (≈ 3.62 µM)
3 | CCO/N=C(\C(=O)N[C@@H]1C(=O)N2C(C(=O)[O-])=C(CSc3nc(N)cc[n+]3C)CS[C@H]12)c1nsc(N)n1 [Example 6, 7-[(Z)-2-(5-amino-1,2,4-thiadiazol-3-yl)-2-(ethoxyimino)acetamido]-3-(4-amino-1-methylpyrimidinium-2-yl)thiomethyl-3-cephem-4-carboxylate] | 1 (≈ 1.81 µM) | 16 (≈ 29 µM) | 0.063 (≈ 0.114 µM) | 0.063 (≈ 0.114 µM) | 0.016 (≈ 0.029 µM) | 0.063 (≈ 0.114 µM) | 0.063 (≈ 0.114 µM) | 0.063 (≈ 0.114 µM) | ≤ 0.008 | 0.063 (≈ 0.114 µM) | ≤ 0.008 | 0.5 (≈ 0.906 µM) | 0.5 (≈ 0.906 µM) | ≤ 0.008 | 4 (≈ 7.25 µM) | 0.5 (≈ 0.906 µM) | 2 (≈ 3.63 µM) | 0.5 (≈ 0.906 µM) | 0.5 (≈ 0.906 µM) | 0.063 (≈ 0.114 µM) | MIC [21]: 0.25 µg/mL (≈ 0.453 µM); MIC [22]: 0.13 µg/mL (≈ 0.236 µM); MIC [23]: 0.13 µg/mL (≈ 0.236 µM); MIC [24]: 0.13 µg/mL (≈ 0.236 µM); MIC [25]: 32 µg/mL (≈ 58 µM)
